Data taken from a melting point compilation (Tetko et al.; mined from patent text by program, amines drawn as free bases though some values may be those of a salt).

SMILES	melting point [°C]
CCCNC(=O)C(=CN(C)C)C(=O)c1ccccc1Cl	76 to 78
O=C1NC(=O)c2c1c(-c1ccccc1)cc1c2c2cc(O)ccc2n1CCCBr	280 to 282
COc1ccc(CN2CCC3(CCc4c3n(C)c3ccccc43)CC2)cc1	39 to 40
CC(C)(C)OC(=O)N[C@@H]1C(=O)N(CCOCc2ccccc2)c2ccccc2-c2ccccc21	132 to 134
CCCCNS(=O)(=O)c1cc(C(=O)O)cc(Cl)c1Cl	160 to 165
CC(C)(C)c1cccc(S(=O)(=O)n2c(Cc3ccc(C(=O)O)s3)cc3cc(C(F)(F)F)ccc32)c1	110
Cc1ccccc1Cc1n[nH]c2c1c(=O)n(-c1cccc(OC(F)(F)F)c1)c1ncccc21	240 to 242
c1ccc(Cn2c(-c3ccc4c(c3)OCCO4)nc3cccnc32)cc1	156 to 158
CC(C)(C)C1NC(C(=O)O)CS1 (mixture of isomers)	184
CC(C)(C)c1ccc2c(c1O)C(=O)c1c(O)cccc1C2	126 to 127
c1ccc(CN2CC3CC2CN3C2=Nc3ccccc3Oc3ccccc32)cc1 (centres undefined)	70 to 72
Sc1nc(-c2ccc3c(c2)OCO3)c(-c2ccc3c(c2)OCO3)[nH]1	282 to 283
CC(C)(C)c1cc(N(C(=O)CCC(=O)O)c2ccc(OC(=O)c3ccccc3)cc2)cc(C(C)(C)C)c1O	131 to 132
COc1cccnc1C(O)c1ccc(NC(=O)C2=Cc3cc(-c4ccc(C)cc4)ccc3OCC2)cc1 (centres undefined)	232 to 233
COC(=O)CCCCCCn1[nH]c(=O)n(C)c1=O	80 to 81
COc1cccc(Nc2n[nH]c3ncnc(Nc4cccc(Cl)c4)c23)c1	202 to 203
O=C1N(Cc2cccc(O)c2)c2ccccc2C12COc1cc3c(cc12)CCO3 (centres undefined)	225 to 227
CCNC(=O)c1ccsc1	115 to 117
Nc1ccc(-c2ccccc2)cc1[N+](=O)[O-]	163 to 165
COc1ccc(CC(=O)NCCc2ccc([N+](=O)[O-])cc2)cc1	109 to 110
Cc1cc2c(c(C)c1NC(=O)OC(C)(C)C)CC(C)(C)O2	121 to 123
[O-][N+]1=C(c2ccccc2F)c2cc(Cl)ccc2C=CC1	138 to 139
CN1C(O)=C(C(=O)Nc2ccc(Cl)cc2)c2sccc2S1(=O)=O	172
O=C(C=Cc1cccc(S(=O)(=O)Nc2cccc3ccccc23)c1)NO	180

SMILES	melting point [°C]
CCN(CC)c1ccc(C(=O)C(C)(C)N2CCOCC2)cc1	86 to 89
Cc1cc([N+](=O)[O-])c(Cl)cc1Cl	40 to 44
Cc1cc(C)c(C2C(=O)N3CCCCN3C2=O)c(C)c1	247 to 248
O=C(c1ccc(C(=O)c2ccc(F)c([N+](=O)[O-])c2)cc1)c1ccc(F)c([N+](=O)[O-])c1	221 to 223
CC(C)C[C@@H](C=O)NC(=O)[C@H](Cc1c[nH]cn1)NC(=O)[C@H](Cc1ccccc1)NC(=O)CCCc1ccccc1	98 to 103
N#Cc1ccc(CCc2cc(Cl)ccc2OCc2ccccc2)cc1	77 to 79
CC(C)c1csc(/C=C/c2cccc(NC(=O)Cc3ccccc3CC(=O)O)c2)n1	144 to 146
CC1(C)OC(C=Cc2ccoc2)=CC1=O	79 to 80
CCCC[C@@H](C)C[C@@H](CC(=O)OC(C)(C)C)C(=O)N1C(=O)O[C@@H](c2ccccc2)[C@H]1C	84 to 86
Cc1ccc(-c2ccc3c(c2)C=C(C(=O)Nc2ccc(CS(=O)c4ccccc4)cc2)CCO3)cc1 (centres undefined)	127 to 128
O=C(CCCCCNC(=O)c1ccc2ccccc2c1)NO	96 to 98
O=C1C(=Cc2ccccc2)COc2ccccc21	112 to 113
COc1[nH]c(C)c(SC(F)(Cl)Cl)c1C#N	175
Cc1c(C(=O)CBr)ccn1S(=O)(=O)c1ccccc1	108 to 110
Cc1sc2nc3ccc(C#N)cn3c(=O)c2c1C	306 to 307
COc1ccc(-n2nc3c(-c4ccccc4)c(C)[nH]cc-3c2=O)cc1	300 to 310
CCCCCCOC(=O)CC[C@@H](NC(=O)[C@@H](NC(=O)OC(C)(C)C)C(C)C)C(N)=O	94 to 95
CN1Cc2c(-c3noc(CN4CCCCC4)n3)ncn2-c2ccccc2C1=O	167 to 168
CCCNc1c(C#N)cnn1-c1ccc(Cl)c(Cl)c1Cl	95 to 98
O=c1[nH]c2cc(Cl)ccc2c(=O)n1S(=O)(=O)c1cc(Cl)ccc1Cl	254 to 256
O=C(Nc1ccc(Cl)cc1)Nc1c(C(O)(C(F)(F)F)C(F)(F)F)ccc2ccccc12	210 to 212
C=CCn1c(NC)n[nH]c1=S	129 to 131
NS(=O)(=O)c1ccccc1OC(Cl)=CCl	147 to 149

Now from value to compound:

melting point [°C]	SMILES
207 to 209	O=C(Nc1ccc2c(c1)CCC(CCN1CCCC1)=C2)c1ccc(-c2ccc(Cl)cc2)cc1
222 to 224	CCc1nc(/C=C/c2cn(-c3ccccc3)nc2O)cs1
127 to 129	Cc1cc(-c2ccccc2)nc(-c2cccc([N+](=O)[O-])c2)c1C(=O)N1CCN(C)CC1
174 to 175	Cc1nc(N2CCC(Cc3ccc(C(F)(F)F)cc3)C2=O)sc1C(=O)NCc1ccccc1 (centres undefined)
157 to 158	CCOC(=O)c1cc2cccc(NC(=O)c3cc(OCc4ccccc4F)cc(OCc4ccccc4F)c3)c2[nH]1
192 to 193	COc1cc2c(cc1OC)C(=O)C(Cc1ccncc1)C2 (centres undefined)
110	CC(C)(C)C(O)(C=Cc1ccc(C2OCCO2)cc1)Cn1cncn1 (centres undefined)
133 to 134	O=C1OC(CI)CN1c1cc(F)c(-c2cccnc2)c(F)c1 (centres undefined)
150 to 153	C#Cc1cccc(Nc2ncnc3ccc(S(=O)(=O)n4ccc(C=CC(=O)Nc5ccccc5N)c4)cc23)c1
214 to 216	Cc1c(N2CC3CN(Cc4ccccc4)CC3C2)nn2c(-c3ccnc(NC(=O)OC(C)(C)C)c3)c(-c3ccc(F)cc3)nc2c1C (centres undefined)
120	O=C(OCc1ccccc1)c1cc(C(=O)OCc2ccccc2)[nH]n1
240 to 242	CC(=Cc1c[nH]c2ccc3c(c12)CC(O)CO3)[N+](=O)[O-] (centres undefined)
142 to 144	CC(=O)Nc1ccc(S(=O)(=O)NCCN2[C@H](C)Cc3ccsc3[C@@H]2C)cc1 (relative stereo)
157 to 162	CCCCC(CC(=O)Nc1cc(C(N)=O)ccc1C(C)(C)C)c1ccc(OCCCOC)cc1OC (centres undefined)
68 to 72	CCCc1nn(CC)c(C(=O)O)c1Cc1ccc(-c2ccccc2NS(=O)(=O)C(F)(F)F)cc1
213 to 215	Cn1nc(N)c(C(N)=O)c1N
135 to 157	O=C(NC(CO)CO)c1cccc(-c2ccc3c(c2)C(c2ccc(Cl)cc2Cl)CC3)c1 (centres undefined)
95	COC1CC(n2cc(C=CBr)c(=O)n(C)c2=O)OC1CF (centres undefined)
136 to 138	O=c1ncc(Cl)cn1CC(O)CO (centres undefined)
156 to 158	Nc1ccc(CN2CCC(=O)C(=C3SC=CS3)C2=O)cc1
285 to 290	COc1ccc(Cl)cc1-c1n[nH]c(=O)cc1NN
86 to 88	CCN(CC)C(=O)n1cc(C(F)F)c(S(=O)(=O)c2cccc(Cl)c2)n1
188	CCCCN1CCC(C(=O)O)(S(=O)(=O)c2ccc(OCCC(C)C)cc2)CC1
157 to 159	COc1cc(N)c(Cl)cc1C(=O)NCC1CCN(CCCCCC(=O)c2cc3ccccc3s2)CC1
135 to 138	CCc1ncc2n1N=C(c1ccc(N)cc1)c1cc3c(cc1C2)OCO3
60	CC(=O)OC1CSC(Oc2cccc(-c3cnoc3C)c2)C(OC(C)=O)C1OC(C)=O (centres undefined)

melting point [°C]	SMILES
189 to 190	CN(c1ccc(Cl)cc1)c1nc(=O)c2cccnc2s1
147 to 150	CC(=O)Nc1ccc(Cl)c2c1CN(C)C2
174 to 177	O=C(O)c1cccc(-c2ccnc3c(C(=O)c4cccs4)cnn23)c1
170 to 172	CCOC(=O)COC(CC)c1ccc(-c2ccc(Cl)cc2)cc1 (centres undefined)
162 to 164	COC(=O)c1ccc2c(c1)CCC(C(N)=O)C2 (centres undefined)
167 to 168	CC(C)OC(=O)c1cc(N)c(F)c(F)n1
172 to 174	CCCCc1cc(C(N)=O)ccc1OCCCNc1cnn(C(C)C)c(=O)c1Cl
259	CNC(=O)c1cccc(C)c1Nc1nc(Nc2ccc3c(c2)C(=O)NCCC3)ncc1Cl
191 to 192	O=C(Nc1nnc[nH]1)c1ccc2ccccc2c1
151 to 153	COc1cc(NC(C)=O)c(Cl)cc1C(=O)NC1CC2CCCCN2C1 (centres undefined)
60 to 63	Cc1cc(Cn2nc(C(F)(F)C(F)(F)F)nc2C(F)(F)F)ccc1N
85 to 88	Cc1cn(C2CC(N=[N+]=[N-])C(CO)O2)c(=O)nc1N (centres undefined)
156	CC(=NNC(=S)N1CC2CCC(CC2)C1)c1ccccn1
110 to 112	OC1C(COC2CC2)OC(n2cnc3c(NCc4cccc(I)c4)ncnc32)C1O (centres undefined)
280	COC(=O)CCc1cc2cc(Cl)c(Cl)cc2n1S(=O)(=O)c1ccccc1
63 to 64	CCCC(NS(N)(=O)=O)C(=O)OC (centres undefined)
220 to 221	CNC(=O)c1ccccc1Nc1nc(Nc2ccc3c(c2)COCC2CCCCN32)ncc1Cl (centres undefined)
109 to 110	CCOC(=O)C(=NO)c1cccc(C(=O)c2ccccc2)c1
205 to 206	CCOC(=O)C1=C(C)NN=C(C(=O)OC)C1c1ccc([N+](=O)[O-])cc1 (centres undefined)
213 to 214	CON1C=C2N=Nc3cc(C)cnc3N2C1
209 to 210	CC(O)CNc1c([N+](=O)[O-])cnc2ccccc12 (centres undefined)
217	CC(C)(C)OC(=O)CNC1(c2ccccc2Cl)C(=O)Nc2ccc(Cl)cc21 (centres undefined)
57 to 58	Cc1cc(N)c(OCc2ccccc2)c(Cl)c1C
108 to 110	CC(C)(C)C(=O)OCn1nc2ccc(OCCCN3CCC(OC(c4ccccc4)c4ccccc4)CC3)nn2c1=O
101 to 104	Nc1nc(OCOC(=O)C2CCCC2)ncc1F
147	CNC(=O)N(c1ccccc1)c1ncc(C)n1-c1ccccc1
